The term IC50 denotes the concentration at which inhibition is half-maximal.

Consider 42 compounds from patent US12139488B2, “Pyrido[3,2-d]pyrimidine compounds uses thereof for treating a proliferative disease” (Universite de Montreal, priority 2021, dated 2024).

The first assay concerns pERK in HCT-116 cells (KRAS G13D). Nature of the assay: Phospho-ERK inhibition (AlphaLISA SureFire Ultra p-ERK 1/2), HCT116. Format: cell-based, human. The conditions noted are these: HCT116 cells; Ymin in brackets. The procedure: All cancer cell lines (A375, A101D, A2058, RKO, HT29 SK-MEL 30, IPC298, HepG2, HCT-116, Lovo, SWV620, SW480, NCI-H358, NCI-H2122, Calu-6, NCIH2087, NCIH1755, NCIH1666 and Mewo) were obtained from ATCC and cultured in RPMI-1640 medium (Gibco) supplemented with 5% heat inactivated fetal bovine serum (FBS, Wisent) at 37° C. under 5% CO2. Cells were maintained in T175 flasks (Greiner). They were passaged by removing the culture medium, washing once in 10 mL of room temperature Phosphate Buffered Saline (PBS; Wisent) and incubating at 37° C. with 2 mL of 0.05% Trypsin (Thermo-Fisher). Trypsin was then inactivated by adding complete growth medium and the cells were then replated in a T175 culture dish at the appropriate dilution. All cell lines were routinely tested for mycoplasma contamination. Tissue type and mutational status of each cell line can be found in Table B.
AlphaLISA® SureFire® Ultra™ p-ERK 1/2 (Thr202/Tyr204) analysis was conducted on cells plated in 100 μL of complete RPMI-1640 growth medium in 96-well flat-bottomed transparent dishes (Costar) at a density indicated in Table C. Cells were maintained overnight at 37° C. under 5% CO2 before treatment with compounds' dilution series for one hour. The cell density in cells/cm^2 corresponds to cell number divided by the area of one well of a 96-well plate ([…]).
In a dilution series 100 μL/well of test substance dilution prepared in complete RPMI-1640 growth media was added to the cells. The dilution series is selected so that ten concentrations cover a range from 10 μM to 0.33 nM. If necessary the initial concentration of 10 μM is increased to 100 μM or lowered to 1 μM (as in the case of A375 and H1666 cells, which are generally more sensitive to the compounds) and further dilution is carried out accordingly. The final concentration of DMSO in the assay is set at 0.5%.
After treatment, media was removed and cells were lysed in 50 μL of 1× AlphaScreen Ultra Lysis Buffer (Perkin Elmer). The AlphaLISA® SureFire® Ultra™ p-ERK 1/2 (Thr202/Tyr2O4) (PerkinElmer) reactions were performed with 5 μL of cell lysate according to the manufacturer's specifications in 384-well proxyplates (Perkin Elmer) followed by overnight incubation of the reactions at room temperature in a humidified chamber. After completion of the reactions, the signals were recorded on an EnVision plate reader (Perkin Elmer) using built in AlphaLISA® settings.
The effect of each compound dilution on the pERK signal was expressed in % inhibition and calculated as follows. An internal 100% inhibition control ([…] trametinib, cat #HY-10999; MedChem Express; CAS #871700-17-3) was included in each plate and used as a measure of pERK background. First, the value obtained for trametinib was subtracted from each data point. The average of DMSO (vehicle) controls (set as 0% inhibition) was established and used to calculate % inhibition: % inhibition=100*(1-((pERK signalcompound)/(pERK signalDMSO)))
The ability of each compound to inhibit pERK signal was expressed as an IC50 value obtained by plotting the inhibition values for each data point of a dilution series and fitting the obtained curves using a log(agonist) versus response-variable slope (four parameters) function using GraphPadPrism (V7.0) or Dotmatics Screening Ultra platform.
When present, paradoxical pERK induction is inferred from the negative % inhibition values observed in the pERK IC50 curves of a compound.
`O=S(=O)(Nc1ccc(F)c(Nc2ncnc3ccc(-n4cnc5c(CN6CCNCC6)cccc54)nc23)c1F)c1ccccc1Cl` [Ex 230]: the “HCT116 pERK Ymin %” value is reported as −3%.
Same read-out and setting: in the case of `CC(c1cccc2c1ncn2-c1ccc2ncnc(Nc3c(F)ccc(NS(=O)(=O)c4ccccc4Cl)c3F)c2n1)N1CCOCC1` (centres unmarked) [Example 237] it was 2.8%.
Still for that read-out and setting: in the case of `O=S(=O)(Nc1ccc(F)c(Nc2ncnc3ccc(-n4cnc5c(CN6CCC6)cccc54)nc23)c1F)c1ccccc1Cl` [Ex 218] it was −6%; in that of `O=S(=O)(Nc1ccc(F)c(Nc2ncnc3ccc(-n4cnc5c(CN6CCCCC6)cccc54)nc23)c1F)c1ccccc1Cl` [Ex 228], 2.0%.
Still for that read-out and setting: as for `O=S(=O)(Nc1ccc(F)c(Nc2ncnc3ccc(-n4cnc5c(CN6CC(F)C6)cccc54)nc23)c1F)c1ccccc1Cl` [Example 227], the figure is −1.9%.

The assay is the same for the next values; noted with them: HCT116 cells; class symbol.
In the case of `Cc1c(F)cccc1S(=O)(=O)Nc1ccc(F)c(Nc2ncnc3ccc(-n4ncc5c4CCCN5C)nc23)c1F` [Example 460], the IC50 fell in the range of 1000 to 10000 nM.
On the same count and under the same terms, as for `O=S(=O)(Nc1ccc(F)c(Nc2ncnc3ccc(-n4cc(S(=O)(=O)C5CCN(C6CCC6)CC5)c5ccccc54)nc23)c1F)c1cccc(Cl)c1Cl` [Example 470], the figure is below 500 nM; as for `O=S(=O)(Nc1ccc(F)c(Nc2ncnc3ccc(-n4cc(S(=O)(=O)C5CCNCC5)c5ccccc54)nc23)c1F)c1cccc(Cl)c1Cl` [Example 465], 500 to 1000 nM.
On the same count and under the same terms, in the case of `CN(C)CCNS(=O)(=O)c1cn(-c2ccc3ncnc(Nc4c(F)ccc(NS(=O)(=O)c5cccc(Cl)c5Cl)c4F)c3n2)c2ccc(F)cc12` [Example 443] it was below 500 nM; in that of `O=C1CCCCN1c1cn(-c2ccc3ncnc(Nc4c(F)ccc(NS(=O)(=O)c5cccc(Cl)c5Cl)c4F)c3n2)c2ccccc12` [Example 532], 1000 to 10000 nM; in that of `CN(C)CCN(C)S(=O)(=O)c1cn(-c2ccc3ncnc(Nc4c(F)ccc(NS(=O)(=O)c5cccc(Cl)c5Cl)c4F)c3n2)c2ccc(F)cc12` [Example 444], below 500 nM.
On the same count and under the same terms, as for `Cc1c(F)cccc1S(=O)(=O)Nc1ccc(F)c(Nc2ncnc3ccc(-n4cnc5c(N(CCO)CCO)cccc54)nc23)c1F` [Example 351], the figure is below 500 nM; as for `CC(C)(CO)S(=O)(=O)c1cn(-c2ccc3ncnc(Nc4c(F)ccc(NS(=O)(=O)c5cccc(Cl)c5Cl)c4F)c3n2)c2ccccc12` [Example 447], below 500 nM; as for `Cc1c(F)cccc1S(=O)(=O)Nc1ccc(F)c(Nc2ncnc3ccc(-n4ncc5c4CN(CCO)CC5)nc23)c1F` [Example 339], below 500 nM.
`CC(C)(CN1CCOCC1)S(=O)(=O)c1cn(-c2ccc3ncnc(Nc4c(F)ccc(NS(=O)(=O)c5cccc(Cl)c5Cl)c4F)c3n2)c2ccccc12` [Example 457] came in with an IC50 below 500 nM.
On the same count and under the same terms, as for `Cc1c(F)cccc1S(=O)(=O)Nc1ccc(F)c(Nc2ncnc3ccc(-n4cc5c(n4)CCCN5CCO)nc23)c1F` [Example 340], the figure is below 500 nM; as for `CC(C)N1CCC(S(=O)(=O)c2cn(-c3ccc4ncnc(Nc5c(F)ccc(NS(=O)(=O)c6cccc(Cl)c6Cl)c5F)c4n3)c3ccccc23)CC1` [Example 468], below 500 nM.
Still for that read-out and setting: in the case of `Cc1c(F)cccc1S(=O)(=O)Nc1ccc(F)c(Nc2ncnc3ccc(-n4ncc5c4CN(CC(N)=O)CC5)nc23)c1F` [Example 531] it was 1000 to 10000 nM; in that of `CC1(O)CCN(S(=O)(=O)c2cn(-c3ccc4ncnc(Nc5c(F)ccc(NS(=O)(=O)c6cccc(Cl)c6Cl)c5F)c4n3)c3ccccc23)CC1` [Ex 458], below 500 nM.
On the same count and under the same terms, in the case of `O=S(=O)(Nc1ccc(F)c(Nc2ncnc3ccc(-c4cscn4)nc23)c1F)c1cccc(Cl)c1Cl` [Example 536] it was 500 to 1000 nM; in that of `CN(C)CC(C)(C)S(=O)(=O)c1cn(-c2ccc3ncnc(Nc4c(F)ccc(NS(=O)(=O)c5cccc(Cl)c5Cl)c4F)c3n2)c2ccccc12` [Example 456], below 500 nM.
`Cc1c(F)cccc1S(=O)(=O)Nc1ccc(F)c(Nc2ncnc3ccc(-n4cc5c(n4)CCCN5C(=O)CN)nc23)c1F` [Example 392] had an IC50 of 1000 to 10000 nM.
`CCN1CCN(S(=O)(=O)c2cn(-c3ccc4ncnc(Nc5c(F)ccc(NS(=O)(=O)c6cccc(Cl)c6Cl)c5F)c4n3)c3ccccc23)CC1` [Ex 388] returned a half-maximal inhibitory concentration (IC50) below 500 nM.
Still for that read-out and setting: as for `Cc1cc(N)ccc1S(=O)(=O)Nc1ccc(F)c(Nc2ncnc3ccc(-n4cnc5c(N)cccc54)nc23)c1F` [Example 369], the figure is 500 to 1000 nM.
With `O=S(=O)(Nc1ccc(F)c(Nc2ncnc3ccc(-n4cc(S(=O)(=O)N5CCN(CCO)CC5)c5ccccc54)nc23)c1F)c1cccc(Cl)c1Cl` [Ex 389], the IC50 was below 500 nM.
The same measure, in the same setting: in the case of `O=S(=O)(Nc1ccc(F)c(Nc2ncnc3ccc(-n4cc(S(=O)(=O)N5CC6COCC6C5)c5ccccc54)nc23)c1F)c1cccc(Cl)c1Cl` (centres unmarked) [Ex 451] it was below 500 nM.
The compound `CN1CCCN(S(=O)(=O)c2cn(-c3ccc4ncnc(Nc5c(F)ccc(NS(=O)(=O)c6cccc(Cl)c6Cl)c5F)c4n3)c3ccccc23)CC1` [Ex 436] had an IC50 below 500 nM.
The same measure, in the same setting: as for `CC(=O)N1CCc2cnn(-c3ccc4ncnc(Nc5c(F)ccc(NS(=O)(=O)c6cccc(F)c6C)c5F)c4n3)c2C1` [Example 393], the figure is 500 to 1000 nM.
Same read-out and setting: in the case of `O=S(=O)(Nc1ccc(F)c(Nc2ncnc3ccc(-n4cc(S(=O)(=O)C5CCN(CC6CC6)CC5)c5ccccc54)nc23)c1F)c1cccc(Cl)c1Cl` [Example 469] it was below 500 nM; in that of `O=S(=O)(Nc1ccc(F)c(Nc2ncnc3ccc(-n4cc(N5CCCCS5(=O)=O)c5ccccc54)nc23)c1F)c1cccc(Cl)c1Cl` [Example 514], below 500 nM; in that of `Cc1c(F)cccc1S(=O)(=O)Nc1ccc(F)c(Nc2ncnc3ccc(-n4cnc5c(C#N)cccc54)nc23)c1F` [Example 329], 1000 to 10000 nM.
As to `CC(=O)c1cn(-c2ccc3ncnc(Nc4c(F)ccc(NS(=O)(=O)c5cccc(Cl)c5Cl)c4F)c3n2)c2ccccc12` [Ex 464], the IC50 was 1000 to 10000 nM.
On the same count and under the same terms, in the case of `CS(=O)(=O)c1cn(-c2ccc3ncnc(Nc4c(F)ccc(NS(=O)(=O)c5cccc(Cl)c5Cl)c4F)c3n2)c2ccccc12` [Ex 381] it was below 500 nM; in that of `COCCN(CCOC)c1cccc2c1ncn2-c1ccc2ncnc(Nc3c(F)ccc(NS(=O)(=O)c4cccc(F)c4C)c3F)c2n1` [Example 376], 500 to 1000 nM; in that of `CC(=O)NCCN1CCCc2nn(-c3ccc4ncnc(Nc5c(F)ccc(NS(=O)(=O)c6cccc(F)c6C)c5F)c4n3)cc21` [Example 383], 1000 to 10000 nM.
On the same count and under the same terms, as for `Cc1c(F)cccc1S(=O)(=O)Nc1ccc(F)c(Nc2ncnc3ccc(-n4cnc(CCC#N)c4)nc23)c1F` [Example 347], the figure is below 500 nM.
Same read-out and setting: as for `CC(=O)N1CCCc2nn(-c3ccc4ncnc(Nc5c(F)ccc(NS(=O)(=O)c6cccc(F)c6C)c5F)c4n3)cc21` [Example 357], the figure is 500 to 1000 nM; as for `CC(C)(O)CCNS(=O)(=O)c1cn(-c2ccc3ncnc(Nc4c(F)ccc(NS(=O)(=O)c5cccc(Cl)c5Cl)c4F)c3n2)c2ccccc12` [Ex 453], below 500 nM.
The compound `CP(C)(=O)c1cn(-c2ccc3ncnc(Nc4c(F)ccc(NS(=O)(=O)c5cccc(Cl)c5Cl)c4F)c3n2)c2ccccc12` [Example 472] gave a half-maximal inhibitory concentration (IC50) of 1000 to 10000 nM.
On the same count and under the same terms, in the case of `Cc1cn(-c2ccc3ncnc(Nc4c(F)ccc(NS(=O)(=O)c5cccc(Cl)c5Cl)c4F)c3n2)cn1` [Example 553] it was below 500 nM.
The compound `CC(C)(C#N)c1cccc2c1ncn2-c1ccc2ncnc(Nc3c(F)ccc(NS(=O)(=O)c4cccc(Cl)c4Cl)c3F)c2n1` [Example 520] yielded an IC50 below 500 nM.
Regarding `O=S(=O)(Nc1ccc(F)c(Nc2ncnc3ccc(-n4cnc5c(CCO)cccc54)nc23)c1F)c1cccc(Cl)c1Cl` [Example 556], the IC50 was below 500 nM.

The same assay, now with this note: HCT116 cells; class symbol before the bracket.
In turn, `O=S(=O)(Nc1ccc(F)c(Nc2ncnc3ccc(-n4cnc5c(CN6CCNCC6)cccc54)nc23)c1F)c1ccccc1Cl` [Ex 230] came in with an IC50 of 1000 to 10000 nM.
Still for that read-out and setting: as for `CC(c1cccc2c1ncn2-c1ccc2ncnc(Nc3c(F)ccc(NS(=O)(=O)c4ccccc4Cl)c3F)c2n1)N1CCOCC1` (centres unmarked) [Example 237], the figure is 500 to 1000 nM.
Same read-out and setting: in the case of `O=S(=O)(Nc1ccc(F)c(Nc2ncnc3ccc(-n4cnc5c(CN6CCC6)cccc54)nc23)c1F)c1ccccc1Cl` [Ex 218] it was 500 to 1000 nM; in that of `O=S(=O)(Nc1ccc(F)c(Nc2ncnc3ccc(-n4cnc5c(CN6CCCCC6)cccc54)nc23)c1F)c1ccccc1Cl` [Ex 228], 500 to 1000 nM; in that of `O=S(=O)(Nc1ccc(F)c(Nc2ncnc3ccc(-n4cnc5c(CN6CC(F)C6)cccc54)nc23)c1F)c1ccccc1Cl` [Example 227], 500 to 1000 nM.
